Entries after “also recorded” stand apart in the source; their conditions may differ.
How the values were obtained:
healthy volunteers = conditions: healthy individuals; acute dose; two hours after administration; cited from earlier work
[1] = system: individuals with untreated clinical depression; assay: Taste recognition thresholds before and two hours after acute paroxetine (SSRI) challenge; type: in vivo, human
Description: Taste responses to sweet, salt, bitter and sour stimuli were then determined. Individuals were informed of which taste modality (sweet, bitter, salt, sour) they were receiving but were given no indication of whether the tester thought they would be able to recognise the taste or not.
The taste modalities were applied in solution to the tip of the tongue, using a cotton bud saturated with the solution at room temperature and placed on the tongue for approximately 5 seconds. Without closing their mouth the subject was asked to indicate whether or not they could taste the stimulus at that concentration. Between each stimulus application a 20 second inter-stimulus interval was adhered to during which the subject would rinse their mouth with approximately 25 ml of deionized water.
Each concentration of stimulus was presented to the subject five times in total, and the percentage of positive responses at each concentration determined. Subjects were first presented with a solution above threshold and thereafter, stimuli were presented in a pseudorandom order in concentrations representing ¼ log steps between the lowest (undetectable, 0% detection) to the highest (always detectable, 100% detection) concentrations, with each concentration being presented 5 times.
The range of concentrations for each taste modality was different, as detailed below: • Sweet (1M-300 μM sucrose) • Bitter (300 μM-0.3 μM quinine hydrochloride) • Salt (1M-0.2 mM NaCl) • Sour (100 mM-0.56 mM citric acid; C6H8O7).
Taste psychometric functions before and after paroxetine administration were also determined for all the individuals with previously untreated depression. From these curves, taste recognition thresholds (the concentration at which the subject would recognize the taste 50% of the time) were calculated before and after challenge in order to determine the degree of change in taste recognition that occurred (Heath et al., (2006) Journal of Neuroscience 26(49): 12664-71).
Taste recognition thresholds were determined by testing a solution of a taste modality (sweet, salt, sour, bitter) on the tip of the tongue, and the subject confirmed whether or not they recognised the taste. Referring to FIG. 3, a curve was then constructed of the number of correct identifications against the concentration of the taste in the solution. The taste recognition threshold was calculated from the curve as the concentration at which the subject would correctly identify the taste 50% of the time (Heath, Melichar, Nutt & Donaldson (2006) Journal of Neuroscience 26(49): 12664-71). […]
Patients referred to a depression clinic in Hyderabad, India were screened and recruited to the study. They had their taste recognition threshold assessed before and two hours after taking an antidepressant (Paroxetine, SSRI). […]

Structure (SMILES)	bitter and sweet taste thresholds (healthy volunteers)	post-challenge taste recognition thresholds versus healthy controls ([1]; all taste modalities, controls without challenge)	post-challenge taste recognition thresholds versus pre-challenge values (statistical significance) ([1]; salt, sweet, sour and bitter, Kruskal Wallis, post-hoc Dunn's tests)	taste recognition thresholds after acute challenge compared with baseline ([1]; salt, sweet, sour and bitter, paroxetine 20 mg, two hours after challenge, n=47)	effect on depressive symptoms ([1]; two hours after acute challenge)	bitter and sour thresholds (healthy volunteers)
Fc1ccc([C@@H]2CCNC[C@H]2COc2ccc3c(c2)OCO3)cc1 [paroxetine]	significantly reduced	significantly higher	not significantly different	reduced; also recorded: generally become lower	lack of immediate effect	
CCOc1ccccc1OC(c1ccccc1)C1CNCCO1 (stereo not drawn) [reboxetine]						significantly reduced

— patent US20190290182A1, “METHOD OF DIAGNOSTIC RELEVANCE BASED ON TASTE RECOGNITION” (RANVIER HEALTH LIMITED, priority 2016, published 2019)
